Test results from patent publication US20250283041A1, “METHODS FOR PRODUCING RED BLOOD CELLS” (Albert Einstein College of Medicine, priority 2022, published 2025).

Test system: cells from the A4 clone (hemizygous D816V kit iPSC line)
Test: Enucleation rate by flow cytometry using DRAQ5 (PSC-RED protocol without SCF and Epo)
Type: cell-based, human
Details: clone A4, 200 nM dasatinib introduced starting at day 35, read at day 41; without dasatinib about 18%
Experimental: Enucleation: The enucleation rate was measured using the DRAQ5 DNA nuclear stain (ThermoFisher) after exclusion of dead cells with Propidium Iodide. The cells were analyzed with an Aurora flow cytometer (Cytek) flow cytometer, and the flow cytometry data were analyzed with the Flowjo software.
To assess the effect of the D816V kit mutation, control 01 iPSCs were differentiated, and hemizygous clone A4 and homozygous and B34 were randomly selected using the PSC-RED protocol with or without SCF and Epo (FIG. 3A). Dasatinib, which can be used to inhibit the activity of the D816V SCF receptor, was also included in some experiments. Cells were counted once a week, and differentiation was evaluated by flow cytometry, methyl-cellulose assays, and microscopy after Romanowsky staining.
The rate of enucleation was determined by flow cytometry using DRAQ5, a cell permeant DNA dye. Since no cytokines are necessary after day 17 in the PSC-RED protocol in the absence of SCF and Epo, the only trigger left to induce terminal differentiation is the removal of dexamethasone and introduction of RU-4816, a glucocorticoid antagonist (FIG. 2A).

**Q.** `Cc1nc(Nc2ncc(C(=O)Nc3c(C)cccc3Cl)s2)cc(N2CCN(CCO)CC2)n1` [dasatinib] was tested. Which enucleation rate did it give?
**A.** about 25%
